From patent US20100160264A1, “CRYSTALLINE SOLID FORMS” (priority 2007, published 2010)
Converted amounts (≈) assume the structure as drawn.

Experiments:
[1] = Stability after storing different crystalline forms of Tigecycline at 80° C. for 7 days (4-Epi-Tigecycline and total impurities); assay type: physicochemical; settings: for 4-Epi-Tigecycline 7 days at 80° C. / Total impurities 7 days at 80° C.: after storing 7 days at 80° C., in % (unit assumed); for 4-Epi-Tigecycline ambient conditions / Total impurities ambient conditions: before storage, depends on purity of the starting material; for Stability in words (total impurities and 4-Epi-Tigecycline content): 7 days at 80° C.
Source text: A suitable crystalline form of Tigecycline for formulating an anti-infective medicament first of all is required to be thermodynamic stable, in order to avoid formation of degradation products.

[2] = Water content and hygroscopicity: open storage for 24 hours at 80% relative humidity; assay type: physicochemical; settings: for water content 1 day at 80% rH: open storage 1 day at 80% rH; for water uptake 1 day at 80% rH / Hygroscopicity in words: open storage 24 hours at 80% relative humidity
Source text: Furthermore suitable crystalline forms of Tigecycline should be low hygroscopic, as water uptake may cause the formation of undesired byproducts like e.g. 4-Epi-Tigecycline.

[3] = 30 min
Method: The water solubility determination of the different crystalline forms of Tigecycline was performed on a Perkin Elmer® Lambda 35 UV/VIS spectrometer. The software used was Perkin Elmer® UV WlnLab-5.1.
200 mg of Tigecycline were stirred with 1 ml distilled water at room temperature for 30 minutes. The suspension was filtered through a 0.45 μm filter and 100 μl of the solution were transferred into a 1 L volumetric flask. After filling up to the check mark with distilled water the solution was measured at 347 nm.

[4] = cited from earlier work

CN(C)c1cc(NC(=O)CNC(C)(C)C)c(O)c2c1C[C@H]1C[C@H]3[C@H](N(C)C)C(O)=C(C(N)=O)C(=O)[C@@]3(O)C(O)=C1C2=O [Form IV, Tigecycline]
4-Epi-Tigecycline 7 days at 80° C. ([1]; listed as IV): 0.38
Total impurities 7 days at 80° C. ([1]; listed as IV): 0.87
4-Epi-Tigecycline ambient conditions ([1]; listed as IV): 0.23%
Total impurities ambient conditions ([1]; listed as IV): 0.4%
water content ambient conditions ([2]; listed as IV): 2.90%
water content 1 day at 80% rH ([2]; listed as IV): 3.33%
water uptake 1 day at 80% rH ([2]; listed as IV): 0.43%
Solubility, Concentration [3]: 183 mg/mL (≈ 312 mM)

CN(C)c1cc(NC(=O)CNC(C)(C)C)c(O)c2c1C[C@H]1C[C@H]3[C@H](N(C)C)C(O)=C(C(N)=O)C(=O)[C@@]3(O)C(O)=C1C2=O [Tigecycline, (4S,4aS,5aR,12aS)-4,7-Bis(dimethylamino)-9-[[2-[(1,1-dimethylethyl)amino]acetyl]amino]-1,4,4a,5,5a,6,11,12a-octahydro-3,10,12,12a-tetrahydroxy-1,11-dioxo-2-naphthacene carboxamide]
oral bioavailability [4]: very limited

CN(C)c1cc(NC(=O)CNC(C)(C)C)c(O)c2c1C[C@H]1C[C@H]3[C@H](N(C)C)C(O)=C(C(N)=O)C(=O)[C@@]3(O)C(O)=C1C2=O [Form V, Tigecycline]
4-Epi-Tigecycline 7 days at 80° C. ([1]; listed as V): 0.18
Total impurities 7 days at 80° C. ([1]; listed as V): 0.37
4-Epi-Tigecycline ambient conditions ([1]; listed as V): < 0.05%
Total impurities ambient conditions ([1]; listed as V): 0.22%
water content ambient conditions ([2]; listed as V): 0.19%
water content 1 day at 80% rH ([2]; listed as V): 1.88%
water uptake 1 day at 80% rH ([2]; listed as V): 1.69%
Solubility, Concentration [3]: 134 mg/mL (≈ 229 mM)

CN(C)c1cc(NC(=O)CNC(C)(C)C)c(O)c2c1C[C@H]1C[C@H]3[C@H](N(C)C)C(O)=C(C(N)=O)C(=O)[C@@]3(O)C(O)=C1C2=O [Form III, Tigecycline]
4-Epi-Tigecycline 7 days at 80° C. ([1]; listed as III): 2.18
Total impurities 7 days at 80° C. ([1]; listed as III): 4.46
4-Epi-Tigecycline ambient conditions ([1]; listed as III): 0.16%
Total impurities ambient conditions ([1]; listed as III): 0.16%
water content ambient conditions ([2]; listed as III): 0.69%
water content 1 day at 80% rH ([2]; listed as III): 8.01%
water uptake 1 day at 80% rH [2]: 7.32%
water uptake 1 day at 80% rH ([2]; listed as III): 7.32%
Solubility, Concentration [3]: 174 mg/mL (≈ 297 mM)

CN(C)c1cc(NC(=O)CNC(C)(C)C)c(O)c2c1C[C@H]1C[C@H]3[C@H](N(C)C)C(O)=C(C(N)=O)C(=O)[C@@]3(O)C(O)=C1C2=O [Form II, Tigecycline]
Stability in words (total impurities and 4-Epi-Tigecycline content) ([1]; listed as form II): tremendous increase
4-Epi-Tigecycline 7 days at 80° C. ([1]; listed as II): 10.83
Total impurities 7 days at 80° C. ([1]; listed as II): 18.44
4-Epi-Tigecycline ambient conditions ([1]; listed as II): 1.04%
Total impurities ambient conditions ([1]; listed as II): 1.6%
water content ambient conditions ([2]; listed as II): 2.93%
water content 1 day at 80% rH ([2]; listed as II): 10.04%
water uptake 1 day at 80% rH ([2]; listed as II): 7.11%
Solubility, Concentration [3]: 177 mg/mL (≈ 302 mM)

CN(C)c1cc(NC(=O)CNC(C)(C)C)c(O)c2c1C[C@H]1C[C@H]3[C@H](N(C)C)C(O)=C(C(N)=O)C(=O)[C@@]3(O)C(O)=C1C2=O [Form I, Tigecycline]
Stability in words (total impurities and 4-Epi-Tigecycline content) [1]: tremendous increase
4-Epi-Tigecycline 7 days at 80° C. ([1]; listed as I): 2.15
Total impurities 7 days at 80° C. ([1]; listed as I): 11.20
4-Epi-Tigecycline ambient conditions ([1]; listed as I): 0.36%
Total impurities ambient conditions ([1]; listed as I): 0.75%
water content ambient conditions ([2]; listed as I): 2.01%
water content 1 day at 80% rH ([2]; listed as I): 5.01%
water uptake 1 day at 80% rH ([2]; listed as I): 3.00%
Solubility, Concentration [3]: 185 mg/mL (≈ 316 mM)

CN(C)c1cc(NC(=O)CNC(C)(C)C)c(O)c2c1C[C@H]1C[C@H]3[C@H](N(C)C)C(O)=C(C(N)=O)C(=O)[C@@]3(O)C(O)=C1C2=O [Form VI, Tigecycline]
Stability in words (total impurities and 4-Epi-Tigecycline content) ([1]; listed as VI): adequate stability data
4-Epi-Tigecycline 7 days at 80° C. ([1]; listed as VI): 0.38
Total impurities 7 days at 80° C. ([1]; listed as VI): 0.91
4-Epi-Tigecycline ambient conditions ([1]; listed as VI): 0.17%
Total impurities ambient conditions ([1]; listed as VI): 0.24%
water content ambient conditions ([2]; listed as VI): 0.18%
water content 1 day at 80% rH ([2]; listed as VI): 0.25%
Hygroscopicity in words [2]: low hygroscopicity
water uptake 1 day at 80% rH ([2]; listed as VI): 0.07%
Solubility, Concentration [3]: 76 mg/mL (≈ 130 mM)

CN(C)c1cc(NC(=O)CNC(C)(C)C)c(O)c2c1C[C@H]1C[C@H]3[C@H](N(C)C)C(O)=C(C(N)=O)C(=O)[C@@]3(O)C(O)=C1C2=O [Form VIII, Tigecycline]
Stability in words (total impurities and 4-Epi-Tigecycline content) ([1]; listed as VIII): adequate stability data
Stability in words (total impurities and 4-Epi-Tigecycline content) ([1]; listed as form VIII): adequate stability data
4-Epi-Tigecycline 7 days at 80° C. ([1]; listed as VIII): 0.70
Total impurities 7 days at 80° C. ([1]; listed as VIII): 2.13
4-Epi-Tigecycline ambient conditions ([1]; listed as VIII): 0.15%
Total impurities ambient conditions ([1]; listed as VIII): 0.43%
water content ambient conditions ([2]; listed as VIII): 0.10%
water content 1 day at 80% rH ([2]; listed as VIII): 0.21%
water uptake 1 day at 80% rH ([2]; listed as VIII): 0.11%
Hygroscopicity in words ([2]; listed as form VIII): no water uptake at all
water uptake 1 day at 80% rH ([2]; listed as form VIII): 0.11%
Solubility, Concentration [3]: 141 mg/mL (≈ 241 mM)
